Test results: patent publication US6262064A, “Octahydrobenzo[f]quinoline-based receptor agonists and antagonists” (priority 1999, dated 2001)
Where two headings read alike, the source gives them in different places.

Legend:
[1] = molecular target: alpha2-adrenergic receptor; assay: Alpha2-adrenergic (non-selective) binding assay ([3H]RX 781094); set-up: species or system rat; details: for α2 receptor binding affinity: in words
D2 receptor = molecular target: T1, D2 receptor (Rattus norvegicus, UniProt P61169); assay: D2 receptor agonist evaluation (membrane binding with and without Gpp(NH)p); details: for D2 agonist/antagonist assessment / effect of GTP on D2 receptor binding: in words
T1 construct: expressed in transfected cells
T1 sequence (P61169 whole entry): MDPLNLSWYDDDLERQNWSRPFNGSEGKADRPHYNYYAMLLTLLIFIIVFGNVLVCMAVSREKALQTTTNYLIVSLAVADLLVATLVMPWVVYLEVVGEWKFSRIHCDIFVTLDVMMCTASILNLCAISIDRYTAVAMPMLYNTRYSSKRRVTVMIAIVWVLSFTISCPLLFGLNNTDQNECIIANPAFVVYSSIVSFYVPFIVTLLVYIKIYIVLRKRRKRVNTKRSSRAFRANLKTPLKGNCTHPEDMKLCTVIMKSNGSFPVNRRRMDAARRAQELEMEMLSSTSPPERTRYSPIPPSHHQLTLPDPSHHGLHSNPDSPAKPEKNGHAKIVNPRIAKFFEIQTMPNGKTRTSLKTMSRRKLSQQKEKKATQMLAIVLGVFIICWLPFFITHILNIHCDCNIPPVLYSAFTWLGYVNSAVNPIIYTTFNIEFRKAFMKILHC
Experimental: To determine the D2, D3 or D4 receptor selectivity, competition binding assays were performed using membranes from fibroblast cell lines transfected with D2444 (rat), D3 (human) or D4 (rat) receptors. All cell lines were maintained in Dulbecco's modified Eagle's media (DMEM) supplemented with 10 % fetal bovine serum at 37° C. with 5% CO2. Transfected cells were maintained in DMEM containing 300 μg/mL of the antibiotic G418 (Gibco).
To determine whether or not compounds of this invention were D2 receptor agonists, a membrane binding assay, utilizing the D2 cell line described in Example 26, was performed in the presence and absence of the non-hydrolyzable guanine nucleotide (GTP analogue) Gpp(NH)p.

D2 dopamine receptor = molecular target: T2, D2 dopamine receptor (Rattus norvegicus, UniProt P61169); assay: Dopamine D2 binding assay ([3H]Sulpiride); details: for dopamine receptor binding affinity / selectivity for the D2 over the D1 dopamine receptor: in words
T2 construct: rat striatal membranes; from tissue; host or cells: rat striatum membranes
T2 sequence (P61169 whole entry): as above
Experimental: The final ligand concentration was 0.5 nM.

5HT2 serotonin receptor = molecular target: T3, 5HT2 serotonin receptor (Rattus norvegicus, UniProt P14842); assay: Serotonin (5HT2) binding assay ([3H]Ketanserin)
T3 construct: rat cortical membranes; from tissue; host or cells: rat cortex membranes
T3 sequence (P14842 whole entry): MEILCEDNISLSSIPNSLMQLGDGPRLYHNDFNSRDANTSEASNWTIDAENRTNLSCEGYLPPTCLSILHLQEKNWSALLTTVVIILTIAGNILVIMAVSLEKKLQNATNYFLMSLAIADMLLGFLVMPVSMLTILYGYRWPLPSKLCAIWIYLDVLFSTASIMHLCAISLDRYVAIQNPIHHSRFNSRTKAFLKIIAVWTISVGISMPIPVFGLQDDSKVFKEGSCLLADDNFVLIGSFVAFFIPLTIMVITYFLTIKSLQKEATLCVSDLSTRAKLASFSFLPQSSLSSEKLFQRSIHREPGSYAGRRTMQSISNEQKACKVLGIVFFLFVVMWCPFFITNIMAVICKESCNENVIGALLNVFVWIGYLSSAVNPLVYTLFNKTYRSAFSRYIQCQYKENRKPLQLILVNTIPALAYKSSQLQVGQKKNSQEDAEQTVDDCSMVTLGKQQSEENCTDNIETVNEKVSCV
Experimental: The final ligand concentration was 1.0 nM.

D1 dopamine receptor = molecular target: T4, D1 dopamine receptor (Rattus norvegicus, UniProt P18901); assay: Dopamine D1 binding assay ([3H]SCH 23390); details: Table III; rat striatal membranes; read-out: D1 receptor binding affinity Ki
T4 construct: rat striatal membranes; from tissue; host or cells: rat striatum membranes
T4 sequence (P18901 whole entry): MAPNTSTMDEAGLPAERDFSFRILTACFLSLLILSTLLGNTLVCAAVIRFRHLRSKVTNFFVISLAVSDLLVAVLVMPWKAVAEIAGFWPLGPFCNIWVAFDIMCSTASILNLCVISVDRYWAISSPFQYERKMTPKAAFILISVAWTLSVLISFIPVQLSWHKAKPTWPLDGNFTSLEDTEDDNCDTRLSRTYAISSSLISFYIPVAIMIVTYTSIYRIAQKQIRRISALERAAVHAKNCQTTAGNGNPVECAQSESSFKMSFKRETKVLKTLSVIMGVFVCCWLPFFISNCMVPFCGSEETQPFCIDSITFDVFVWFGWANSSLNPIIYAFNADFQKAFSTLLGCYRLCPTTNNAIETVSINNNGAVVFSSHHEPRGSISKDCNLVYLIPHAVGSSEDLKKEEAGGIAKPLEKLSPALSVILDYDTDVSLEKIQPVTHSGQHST
Experimental: The final radioligand concentration was 0.5 nM.

[2] = tested on: alpha1-adrenergic receptor; details: for α1 receptor binding affinity: in words
Experimental: In these assays, the binding reaction was initiated by the addition of varying concentrations of the potential binding composition and a radioligand to an appropriate tissue. The assay was then incubated to allow binding. Binding was then terminated by dilution of the assay with a cold buffer, followed by rapid vacuum filtration onto Whatman GI/C filters that were presoaked in 0.1% polyethylene imine for at least 3 hours. Radioactivity trapped onto the filters was determined and compared to control values in order to ascertain any interactions of test compounds with the binding sites. Binding affinity analyses were performed by Novascreen, Division of the Adheron Corporation, Hanover, Md.
Incubation was conducted in 50 mM TRIS-HCl (pH 7.7) at 25° C. for 60 minutes. […] The final ligand concentration was 0.5 nm.

5HT1 serotonin receptor = assay: Serotonin (5HT1) binding assay
Experimental: In these assays, the binding reaction was initiated by the addition of varying concentrations of the potential binding composition and a radioligand to an appropriate tissue. The assay was then incubated to allow binding. Binding was then terminated by dilution of the assay with a cold buffer, followed by rapid vacuum filtration onto Whatman GI/C filters that were presoaked in 0.1% polyethylene imine for at least 3 hours. Radioactivity trapped onto the filters was determined and compared to control values in order to ascertain any interactions of test compounds with the binding sites.
Incubation was conducted in 50 mM TRIS-HCl (pH 7.4) at 45 minutes for 37° C. The radioligand used was [^3 H]Hydroxytryptamine binoxalate (15-30 Ci/mmol). The final ligand concentration was 3.0 nM.

5HT1A serotonin receptor = molecular target: T5, 5HT1A serotonin receptor (Bos taurus, UniProt F6Q2H9); assay: Serotonin (5HT1A) binding assay ([3H]-8-OH-DPAT); set-up: species or system bovine; details: for 5HT1A serotonin receptor binding affinity: in words
T5 construct: bovine hippocampus; from tissue; host or cells: bovine hippocampus
T5 sequence (F6Q2H9 1-422): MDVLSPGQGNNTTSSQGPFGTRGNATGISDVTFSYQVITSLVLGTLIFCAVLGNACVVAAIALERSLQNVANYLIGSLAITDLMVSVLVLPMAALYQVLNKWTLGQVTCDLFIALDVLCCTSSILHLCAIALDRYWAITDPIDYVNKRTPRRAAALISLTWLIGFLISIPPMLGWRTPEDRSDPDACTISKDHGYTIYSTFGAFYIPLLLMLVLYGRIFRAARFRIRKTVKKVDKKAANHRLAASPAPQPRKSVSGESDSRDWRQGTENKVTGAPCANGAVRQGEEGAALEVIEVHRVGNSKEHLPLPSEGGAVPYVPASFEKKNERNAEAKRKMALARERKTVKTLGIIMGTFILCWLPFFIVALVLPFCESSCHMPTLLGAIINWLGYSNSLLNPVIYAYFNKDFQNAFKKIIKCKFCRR

beta-adrenergic receptor = assay: Beta-adrenergic (non-selective) binding assay ([3H]DHA); set-up: species or system rat
5HT3 serotonin receptor = assay: Serotonin (5HT3) binding assay ([3H]GR65630, NIE-115 neuroblastoma cells)
Experimental: The binding affinities of the compositions of this invention were assayed for various receptors. In these assays, the binding reaction was initiated by the addition of varying concentrations of the potential binding composition and a radioligand to an appropriate tissue. The assay was then incubated to allow binding. Binding was then terminated by dilution of the assay with a cold buffer, followed by rapid vacuum filtration onto Whatman GI/C filters that were presoaked in 0.1% polyethylene imine for at least 3 hours. Radioactivity trapped onto the filters was determined and compared to control values in order to ascertain any interactions of test compounds with the binding sites.
Incubation was conducted in 20 mM HEPES (pH 7.4) containing 150 mM NaCl at 25° C. for 30 minutes. The radioligand used was [^3 H]GR65630 (30-50 Ci/mmol). The final ligand concentration was 0.7 nM.

[3] = Table III, rat cortical membranes, read-out: α2 receptor binding affinity Ki
[4] = Table XV, with Gpp(NH)p, read-out: D2 receptor binding Ki with Gpp(NH)p
[5] = 5-HT2 receptor binding affinity Ki
[6] = read-out: α1 receptor binding affinity Ki, Table III, rat forebrain membranes
[7] = read-out: 5-HT1 receptor binding affinity Ki, Table III, rat cortical membranes
[8] = Table VIII, read-out: Ki of reference compounds, 5HT1A
[9] = Table V, read-out: Ki of reference compounds, alpha2-adrenergic
[10] = 5-HT1A receptor binding affinity Ki, Table III, bovine hippocampus
[11] = Table III, rat striatal membranes, read-out: D2 receptor binding affinity Ki
[12] = Table VI, read-out: Ki of reference compounds, beta-adrenergic
[13] = Table III, bovine hippocampus, read-out: 5-HT1A receptor binding affinity Ki
[14] = read-out: Ki of reference compounds, 5HT1, Table VII
[15] = read-out: Ki of reference compounds, 5HT3, Table X

## Oc1cccc2c1CC[C@H]1[C@H]2CCCN1CCc1ccccc1 (relative stereo) [trans-25, Trans-7-hydroxy-4-phenethyl-1,2,3,4,4a,5,6,10b-octahydrobenzo[f]quinoline]
[1]; [3]
  Ki: 0.22 nM
[1]
  α2 receptor binding affinity: high binding affinities for the α2 receptor
D2 receptor
  Ki: 37 ± 9 nM
  D2 agonist/antagonist assessment: appear to be agonists
  effect of GTP on D2 receptor binding: D2 receptor binding was enhanced by the addition of GTP
D2 receptor; Table XV
  Ratio of +:- Gpp(NH)p: 34.7
D2 receptor; [4]
  Ki: 1270 ± 1640 nM
D2 dopamine receptor
  Ki: 0.87 nM
  dopamine receptor binding affinity: good dopamine receptor binding affinities
  selectivity for the D2 over the D1 dopamine receptor: highly selective for the D2 dopamine receptor over the D1 dopamine receptor
5HT2 serotonin receptor
  5HT2 serotonin receptor binding affinity: high binding affinities for the 5HT2 serotonin receptor
5HT2 serotonin receptor; [5]
  Ki: 27 nM
D1 dopamine receptor
  Ki: 5100 nM
[2]
  α1 receptor binding affinity: high binding affinities for the α1 receptor
[2]; [6]
  Ki: 4.5 nM
5HT1 serotonin receptor; [7]
  Ki: 470 nM

## CCCN(CCC)C1CCc2cccc(O)c2C1 (stereo not drawn) [8-OH-DPAT, reference compound]
5HT1A serotonin receptor; Ki characterizing the 5HT1A assay, assay characterization
  Ki: 2 nM
5HT1A serotonin receptor; [8]
  Ki: 1.4 nM

## Clc1cccc(Cl)c1N=C1NCCN1 [Clonidine, reference compound]
[1]; [9]
  Ki: 14 nM

## Oc1ccc2c(c1O)CC[C@H]1[C@H]2CCCN1CCc1ccccc1 (single isomer, unassigned) [trans-(-)-9, Trans-(-)-7,8-Dihydroxy-4-phenethyl-1,2,3,4,4a,5,6, 10b-octahydrobenzo[f]quinoline]
[1]; [3]
  Ki: 9 nM
[1]
  α2 receptor binding affinity: high binding affinities for the α2 receptor
5HT1A serotonin receptor; [10]
  Ki: 67 nM
5HT1A serotonin receptor
  5HT1A serotonin receptor binding affinity: high binding affinities for the 5HT1A serotonin receptor
D2 dopamine receptor
  Ki: 0.38 nM
  dopamine receptor binding affinity: good dopamine receptor binding affinities
  selectivity for the D2 over the D1 dopamine receptor: highly selective for the D2 dopamine receptor over the D1 dopamine receptor
5HT2 serotonin receptor
  Ki: 26 nM
5HT2 serotonin receptor; in words
  5HT2 serotonin receptor binding affinity: high binding affinities for the 5HT2 serotonin receptor
D1 dopamine receptor
  Ki: 3500 nM
[2]; [6]
  Ki: 130 nM
5HT1 serotonin receptor; [7]
  Ki: 3300 nM

## Oc1ccc2c(c1O)CC[C@H]1[C@H]2CCCN1CCc1ccccc1 (single isomer, unassigned) [trans-(+)-9, Trans-(+)7,8-dihydroxy-4-phenethyl-1,2,3,4,4a,5,6, 10b-octahydrobenzo[f]quinoline]
[1]; [3]
  Ki: 550 nM
5HT1A serotonin receptor; [10]
  Ki: 910 nM
D2 dopamine receptor; [11]
  Ki: 2500 nM
[2]
  α1 receptor binding affinity: high binding affinities for the α1 receptor
[2]; [6]
  Ki: 53 nM

## CC(C)(C)NCC(O)c1ccc(O)c(CO)c1 (stereo not drawn) [Albuterol]
beta-adrenergic receptor; [12]
  Ki: 2880 nM

## Oc1ccc2c(c1O)CC[C@@H]1[C@@H]2CCCN1CCc1cccs1 (relative stereo) [(-)-trans-33]
5HT2 serotonin receptor
  5HT2 serotonin receptor binding affinity: high binding affinities for the 5HT2 serotonin receptor

## Oc1cccc2c1CC[C@@H]1[C@@H]2CCCN1CCc1cccs1 (relative stereo) [trans-31]
[1]; [3]
  Ki: 7.2 nM
[1]
  α2 receptor binding affinity: high binding affinities for the α2 receptor
5HT1A serotonin receptor; [13]
  Ki: 36 nM
5HT1A serotonin receptor
  5HT1A serotonin receptor binding affinity: high binding affinities for the 5HT1A serotonin receptor
D2 dopamine receptor
  Ki: 1.9 nM
  dopamine receptor binding affinity: good dopamine receptor binding affinities
  selectivity for the D2 over the D1 dopamine receptor: highly selective for the D2 dopamine receptor over the D1 dopamine receptor
5HT2 serotonin receptor
  Ki: 80 nM
5HT2 serotonin receptor; in words
  5HT2 serotonin receptor binding affinity: high binding affinities for the 5HT2 serotonin receptor
[2]
  α1 receptor binding affinity: high binding affinities for the α1 receptor
[2]; [6]
  Ki: 17 nM

## C=CCc1ccccc1OCC(O)CNC(C)C (stereo not drawn) [Alprenolol]
beta-adrenergic receptor; [12]
  Ki: 3.5 nM
beta-adrenergic receptor; assay characterization, read-out: Ki characterizing the beta assay
  Ki: 1.74 nM

## Oc1ccc2c(c1O)CC[C@@H]1[C@@H]2CCCN1CCc1cccs1 (relative stereo) [trans-33]
[1]; [3]
  Ki: 19 nM
[1]
  α2 receptor binding affinity: high binding affinities for the α2 receptor
5HT1A serotonin receptor; [13]
  Ki: 190 nM
5HT1A serotonin receptor
  5HT1A serotonin receptor binding affinity: high binding affinities for the 5HT1A serotonin receptor
D2 dopamine receptor
  Ki: 57 nM
  dopamine receptor binding affinity: good dopamine receptor binding affinities
  selectivity for the D2 over the D1 dopamine receptor: highly selective for the D2 dopamine receptor over the D1 dopamine receptor
5HT2 serotonin receptor
  Ki: 100 nM
[2]; [6]
  Ki: 180 nM
5HT1 serotonin receptor; [7]
  Ki: 1800 nM

## COc1ccc2[nH]cc(CCN)c2c1 [5-Methoxytryptamine, reference compound]
5HT1 serotonin receptor; [14]
  Ki: 45.8 nM

## c1ccc2nc(N3CCNCC3)ccc2c1 [Quipazin]
5HT3 serotonin receptor; [15]
  Ki: 1.5 nM

## COCCc1ccc(OCC(O)CNC(C)C)cc1 (stereo not drawn) [Metoprotol]
beta-adrenergic receptor; [12]
  Ki: 45 nM

## NCCc1c[nH]c2ccc(O)cc12 [Serotonin, reference compound]
5HT3 serotonin receptor; [15]
  Ki: 18.7 nM
5HT1 serotonin receptor; read-out: Ki characterizing the 5HT1 assay, assay characterization
  Ki: 2.8 nM
5HT1 serotonin receptor; [14]
  Ki: 4.6 nM

## COc1cccc(OC)c1OCCNCC1COc2ccccc2O1 (stereo not drawn) [WB4101, reference compound]
[2]; read-out: Ki of reference compounds, alpha1-adrenergic, Table IV
  Ki: 2.6 nM

## CN1[C@@H]2CC[C@H]1C[C@@H](OC(=O)c1cc(Cl)cc(Cl)c1)C2 [MDL-72222]
5HT3 serotonin receptor; read-out: Ki characterizing the 5HT3 assay, assay characterization
  Ki: 0.3 nM
5HT3 serotonin receptor; [15]
  Ki: 7.2 nM

## O=C(c1ccc(F)cc1)C1CCN(CCn2c(=O)[nH]c3ccccc3c2=O)CC1 [Ketanserin, reference compound]
5HT1A serotonin receptor; [8]
  Ki: > 10000 nM

## Cc1ccc(N(CC2=NCCN2)c2cccc(O)c2)cc1 [Phentolamine, reference compound]
[1]; [9]
  Ki: 1.7 nM

## Oc1cccc2c1CC[C@H]1[C@@H]2CCCN1CCc1ccccc1 (relative stereo) [cis-25, Cis-7-hydroxy-4-phenethyl-1,2,3,4,4a,5,6,10b-octahydrobenzo[f]quinoline]
[1]; [3]
  Ki: 0.27 nM
[1]
  α2 receptor binding affinity: high binding affinities for the α2 receptor
D2 receptor; Table XV
  Ratio of +:- Gpp(NH)p: 1.07
D2 receptor; [4]
  Ki: 176 ± 213 nM
D2 receptor; Table XV, without Gpp(NH)p, read-out: D2 receptor binding Ki without Gpp(NH)p
  Ki: 164 ± 51 nM
D2 receptor
  D2 agonist/antagonist assessment: appear to be an antagonist
  effect of GTP on D2 receptor binding: the addition of GTP did not significantly affect receptor binding affinity
D2 dopamine receptor
  Ki: 6.6 nM
  dopamine receptor binding affinity: good dopamine receptor binding affinities
  selectivity for the D2 over the D1 dopamine receptor: highly selective for the D2 dopamine receptor over the D1 dopamine receptor
[2]
  α1 receptor binding affinity: high binding affinities for the α1 receptor
[2]; [6]
  Ki: 16 nM

## Oc1cccc2c1CC[C@@H]1[C@@H]2CCCN1CCc1ccccc1 (single isomer, unassigned) [trans-(+)-25]
[1]; [3]
  Ki: 440 nM
5HT1A serotonin receptor; [10]
  Ki: 410 nM
D2 dopamine receptor; [11]
  Ki: 400 nM
5HT2 serotonin receptor
  5HT2 serotonin receptor binding affinity: high binding affinities for the 5HT2 serotonin receptor
5HT2 serotonin receptor; [5]
  Ki: 9.5 nM
[2]
  α1 receptor binding affinity: high binding affinities for the α1 receptor
[2]; [6]
  Ki: 5.5 nM

## CCN(CC)CCNC(=O)c1cc(Cl)c(N)cc1OC [Metoclopramide]
5HT3 serotonin receptor; [15]
  Ki: 191 nM

## CC(C)NCC(O)COc1cccc2[nH]ccc12 (stereo not drawn) [Pindolol]
beta-adrenergic receptor; [12]
  Ki: 1.1 nM

## Oc1ccc2c(c1O)CC[C@@H]1[C@H]2CCCN1CCc1ccccc1 (single isomer, unassigned) [cis-(-)-9]
[1]; [3]
  Ki: 74 nM
[1]
  α2 receptor binding affinity: high binding affinities for the α2 receptor
D2 dopamine receptor
  Ki: 54 nM
  dopamine receptor binding affinity: good dopamine receptor binding affinities
  selectivity for the D2 over the D1 dopamine receptor: highly selective for the D2 dopamine receptor over the D1 dopamine receptor
[2]; [6]
  Ki: 180 nM
